The source made the active and inactive calls. How the calls were made is not given here.
Target: Luciferin 4-monooxygenase (Photinus pyralis) (UniProt P08659)
Assay: native luciferase enzyme inhibition – biochemical, luminescence, dose response, artefact control for HSP90 inhibitor project, late-stage follow-up (AID 2747)
Details: purified firefly luciferase, counterscreen

Luciferin 4-monooxygenase (Photinus pyralis), sequence (P08659 whole entry, looked up): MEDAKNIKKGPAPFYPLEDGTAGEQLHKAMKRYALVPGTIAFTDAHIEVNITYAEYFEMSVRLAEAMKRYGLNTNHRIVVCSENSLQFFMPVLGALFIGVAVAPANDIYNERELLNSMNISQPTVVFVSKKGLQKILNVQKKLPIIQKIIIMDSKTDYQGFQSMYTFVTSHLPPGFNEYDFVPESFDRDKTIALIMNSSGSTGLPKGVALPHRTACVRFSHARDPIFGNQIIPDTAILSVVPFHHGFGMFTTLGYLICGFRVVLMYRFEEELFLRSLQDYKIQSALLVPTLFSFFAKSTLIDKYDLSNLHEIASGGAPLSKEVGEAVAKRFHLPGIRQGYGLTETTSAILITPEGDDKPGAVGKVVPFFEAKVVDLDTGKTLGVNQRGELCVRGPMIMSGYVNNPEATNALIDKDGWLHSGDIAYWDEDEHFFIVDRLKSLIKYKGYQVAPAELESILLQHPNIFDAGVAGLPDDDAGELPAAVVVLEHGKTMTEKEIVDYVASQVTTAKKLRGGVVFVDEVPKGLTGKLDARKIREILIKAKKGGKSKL

Row | Structure (SMILES) | IC50
1 | COc1cc(C=NNc2ccc(Cl)c(C(=O)O)c2)ccc1OC(=O)c1ccc(F)cc1 | > 60 µM (inactive)
2 | CCc1ccc(OCc2ccc(C(=O)OC)o2)cc1 | > 60 µM (inactive)
3 | CCOC(=O)c1csc(NC(=O)c2cc3ccccc3o2)n1 | > 60 µM (inactive)
4 | COC(=O)c1ccccc1OCCCOc1ccc(C)cc1OC | > 60 µM (inactive)
5 | CC(=O)Nc1ccccc1OCC(=O)c1cc(C)n(Cc2cccs2)c1C | > 60 µM (inactive)

Now from value to compound:

Row | IC50 | Structure (SMILES)
6 | > 60 µM (inactive) | COc1ccccc1NC(=O)c1coc(=O)c(Br)c1
7 | > 60 µM (inactive) | Cc1cc(NO)nc(-c2ccc(Br)cc2)n1
8 | > 60 µM (inactive) | Cc1c(-c2nc(-c3ccc(C(C)(C)C)cc3)no2)n(C)oc1=O
9 | > 60 µM (inactive) | CCOC(=O)C1=C(c2ccc(OC)cc2)C(=O)c2ccccc2C1=O
10 | > 60 µM (inactive) | Cc1c(-c2nc(-c3ccc(C(F)(F)F)cc3)no2)n(C)oc1=O

— PubChem BioAssay AID2747 (The Scripps Research Institute Molecular Screening Center, 2010)
